What is called half-life is the time in which the quantity being followed falls by half. Read a low half-life as rapid decline. As a reminder, the CC50 is the concentration giving 50% cytotoxicity.

We go through two compounds from PMC9964390, “Design, Synthesis and Phenotypic Profiling of Simplified Gedatolisib Analogues” (Pharmaceuticals, 2023).

The test system of data set [1] is CCRF-CEM cell line. Kind of data set: Muse Annexin V and Dead Cell Kit (phosphatidylserine externalization, membrane integrity). Conditions: for reduction of cell viability / total apoptosis: CCRF-CEM, at its CC50 value. Format: cell-based, human. Here is the method: (§1) For quantitative analysis of live, early and late apoptosis, and cell death on both the CCRF-CEM and MOLT-4 cell lines, treated with gedatolisib and compound 5f (LASSBio-2252), the Muse® Annexin V and Dead Cell Kit was used. Compounds were studied using three concentrations.
(§2) The Annexin V and Dead Cell Kit (catalog n^o. MCH100105, Luminex) contains Annexin V, a phospholipid marker phosphatidylserine, and the molecule 7-AAD, a DNA marker for cells with a ruptured membrane. […] After incubation for 20 min at room temperature, the samples were read on the cytometer. The data with the histograms generated contain information on the percentage of viable cells, in early apoptosis, late apoptosis and dead cells. Samples from three independent experiments were performed in duplicate, and then statistical analysis was performed using the Prism6 statistical program.

Data set [2] deals with MOLT-4 cell line. The data set is described as above. Format: cell-based, human. Here is the method: as §1, §2
Data set [3] is described as follows: Microsomal metabolic stability. The following applies: for Metabolization Rates: 10 μM; for half-life at 10 μM / recovery at 10 µM: rat. Format: in vitro ADME. Here is the method: To investigate the metabolic stability of LASSBio-2252 (5f), the compound was incubated with rat liver microsomes in the presence and in the absence of the NADPH-generating system. Metabolization rate, half-life (t1/2) and apparent intrinsic clearance (Clapp) were calculated.
The metabolic stability of compound 5f (LASSBio-2252) was studied as previously described, and 1 mg/mL of […] rat microsomes was incubated with compound […] (10 μM) in the presence and in the absence of the cofactor (i.e., NADPH generating system). After mixing and incubation at 37 °C in a shaking water bath for 1 h, 500 µL cold acetonitrile containing the internal standard was added to terminate the reaction at different time intervals (0, 15, 30, 45 and 60 min). After mixing and centrifugation at 10,500× g for 15 min at 4 °C, the supernatant was filtered and then was injected into the HPLC system using a mixture of methanol: water acidified (0.1% formic acid, pH 3.0) (50:50, v/v) as the mobile phase at a flow rate of 1.0 mL/min. After analysing the results, the pharmacokinetic parameters were calculated as microsomal half-life (t1/2) and apparent intrinsic clearance (Clapp).

The subject of data set [4] is PI3K activation and phosphorylation in CCRF-CEM cell line. Kind of data set: Muse PI3K Activation Dual Detection Kit. It is filed as cell-based, human. The protocol:
The methodology evaluates the activation and phosphorylation of PI3K and was performed from the labelling with the Guava Muse Luminex® PI3K Activation Dual Detection Kit (catalog n^o. MCH200103, Luminex) containing the anti-AKT/PKB-PECy5 antibody to measure total PI3K and the anti-phospho-AKT (Ser473)-Alexa Fluor® 555 antibody for measurement of activated PI3K.
Following 48 h of incubation in an incubator at 37 °C with 5% CO2, 1 mL of the cell solution was transferred to an Eppendorf tube, washed with PBS and centrifuged at 300× g for 5 min. The supernatant was discarded, and the pellet formed was resuspended in 500 µL of PBS. The samples were again centrifuged at 300× g for 5 min and the supernatant discarded.
Then the cell solutions were resuspended in 200 µL of assay buffer (Part no. CS202124), followed by the addition of 200 µL of fixation buffer (Part n^o. CS202122), ending up with a total volume of 400 µL per sample. The samples were incubated for 5 min on ice and centrifuged at 300× g for 5 min and the supernatant discarded.
Cells were permeabilized by adding 200 µL of ice-cold permeabilization buffer (Part n^o. CS202125) and then incubated on ice for 5 min and centrifuged at 300× g for 5 min, and the supernatant was discarded. The formed pellets were resuspended in 450 µL of assay buffer and vortexed at medium speed. In total, 90 µL of the solution from each sample was aliquoted into a new tube, and 10 µL of the cocktail solution containing Anti-phospho-Akt (Ser473), Alexa Fluor®555 and Anti-Akt/PKB, Pecy5 was added. The samples were homogenised and incubated for 30 min in the dark at room temperature.
After the incubation step, 100 µL of assay buffer was added per sample and centrifuged at 300× g for 5 min, and the supernatant was discarded. The formed pellets were resuspended in 200 µL of assay buffer and vortexed, and the samples were read in Guava Muse Luminex®. Data from three independent experiments performed in duplicate were analysed in the Prism6 program to determine the percentage of cells expressing activated and inactivated PI3K.

Data set [5] has as its system CCRF-CEM (human leukemia cell line). Also on record: method as in Gazi and coworkers [14]. Conditions: ref Gazi and coworkers [14]; cited from earlier work.
In data set [6] the test system is MCF7 (breast cancer cells). Also noted: method as in Mallon and coworkers [15]. The following applies: ref Mallon and coworkers [15]; cited from earlier work.
Data set [7] concerns human peripheral blood mononuclear cells (PBMCs). Kind of data set: PBMC viability assay (72 h MTT). Conditions: highest concentration studied 50 μM. It is filed as cell-based. Here is the method: Donor blood was collected and EDTA (ethylenediamine tetraacetic acid) was added to the sterile laminar flow in a 1:20 ratio. In a 15 mL falcon tube, 4.5 mL of Ficoll gradient was added, and then 9 mL of blood was added over the gradient in a 1:2 ratio. The tubes were centrifuged for 40 min at a speed of 750× g with an acceleration of 2 and a brake of 0. The ring of mononuclear cells formed was collected and added to a new tube.
Tubes with PBMCs were centrifuged in an incomplete RPMI medium for 10 min at 580× g with an acceleration of 8 and a brake of 9. The supernatant was discarded, and the cells were resuspended in 1 mL of RPMI medium supplemented with 20% […]. PBMCs were added to 96-well plates at a concentration of 1 × 10^5 cells per well. […]
After incubation, each well received 20 µL of MTT (5 mg/mL), followed by incubation for 4 h in the CO2 oven and centrifugation for 12 min at 1200× g. The supernatant from each well was taken, and 100 µL of isopropyl alcohol was added to solubilize the formazan crystals. The absorbance of the plates was measured at 570 nm in the Flex Station equipment.

Where [8] appears, read: Homo sapiens, CCRF-CEM 48 h, read-out: % of cells, Viable.
[9] abbreviates: rat liver microsomes, NADPH-generating system absent.
[10] abbreviates: rat liver microsomes, NADPH-generating system present.

`c1ccc(N2CCN(c3nc(N4CCCNCC4)nc(N4CCOCC4)n3)CC2)cc1` [5f, 4-(4-(1,4-Diazepan-1-yl)-6-(4-phenylpiperazin-1-yl)-1,3,5-triazin-2-yl)morpholine]: the “reduction of cell viability” value in data set [1] is on record as “about 50%”. For the same compound, the total apoptosis result in data set [1] is “about 50%”. Besides, the viability at 5 µM in data set [1] (Homo sapiens, CCRF-CEM 48 h, 5 μM, read-out: % of cells, Viable) amounted to 87%. For the same compound, the viability at 50 µM in data set [1] (setting [8]) was 47%. For the same compound, the viability at 6 µM in data set [2] (Homo sapiens, MOLT-4 48 h, 6 μM, read-out: % de células, Viable) worked out at 86%. Besides, in data set [2] (Homo sapiens, MOLT-4 48 h, 60 μM, read-out: % de células, Viable), the viability at 60 µM was found to be 20%. Further, the “reduction of the number of viable cells” value in data set [2] (MOLT-4, tested at 10-fold concentration) stood at 80%; in data set [2] (MOLT-4, tested at its CC50 value), 14%. Besides, the figures for the “Elimination Rate Constant (k)” value in data set [3] (setting [9]) and in data set [3] (setting [10]) were 0.0017 and 0.0015, respectively. The figures for the “Metabolization Rates” value in data set [3] (setting [9]) and in data set [3] (setting [10]) were 9.09% and 2.90%, respectively. Further, the figures for the half-life at 10 μM in data set [3] (liver microsomes), in data set [3] (setting [9]) and in data set [3] (setting [10]) were over 6 h, 6.79 h and 7.7 h, respectively. Besides, the recovery at 10 µM came out at 100% in data set [3] (liver microsomes, NADPH-generating system absent) and 101% in data set [3] (liver microsomes, NADPH-generating system present). The “percentage of inactivated cells raised to” value was 65% in data set [4] (concentration 10 times higher than its CC50) and 30% in data set [4] (tested at its CC50).

Regarding `CN(C)C1CCN(C(=O)c2ccc(NC(=O)Nc3ccc(-c4nc(N5CCOCC5)nc(N5CCOCC5)n4)cc3)cc2)CC1` [Gedatolisib, gedatolisib], the CC50 was 23 nM in data set [5] and 36 nM in data set [6]. Moreover, the “reduction of cell viability” value in data set [1] is listed as “about 50%”; in data set [2] (MOLT-4, concentration 10 times lower than its CC50) it was 90%. The total apoptosis result in data set [1] is “about 50%”. The viability at 0.6 µM in data set [1] (Homo sapiens, CCRF-CEM 48 h, 0.6 μM, read-out: % of cells, Viable) worked out at 68%. In data set [1] (Homo sapiens, CCRF-CEM 48 h, 6 μM, read-out: % of cells, Viable), the viability at 6 µM came out at 55%. For the same compound, in data set [1] (setting [8]), the viability at 50 µM turned out to be 7%. In addition, in data set [2] (Homo sapiens, MOLT-4 48 h, 0.15 μM, read-out: % de células, Viable), the viability at 0.15 µM stood at 10%. Also, the viability at 1.5 µM in data set [2] (Homo sapiens, MOLT-4 48 h, 1.5 μM, read-out: % de células, Viable) amounted to 11%. The viability at 30 µM in data set [2] (Homo sapiens, MOLT-4 48 h, 30 μM, read-out: % de células, Viable) was found to be 4%. In addition, the “increase of the percentage of cells in the inactivated state” value in data set [4] (at its CC50 (~6 μM) and 10 times lower (0.6 μM)) is “about 75%”. Also, the “Emax (reduction of viability of PBMCs)” value in data set [7] stood at 33%.
